Results published in patent US10975087B2, “Solid forms of tetrahydropyranyl amino-pyrrolopyrimidinone compounds” (ArQule, Inc., priority 2018, dated 2021).
≈ marks a conversion by molar mass, not a printed value. Entries after “also recorded” stand apart in the source; their conditions may differ.

Legend:
Type in all cases: physicochemical
[1] = Gravimetric vapor sorption (GVS)
Protocol: Approximately 10-20 mg of sample was placed into a mesh vapor sorption balance pan and loaded into an IGASorp Moisture Sorption Analyzer balance by Hiden Analytical. The sample was subjected to a ramping profile from 40-90% relative humidity (RH) at 10% increments, maintaining the sample at each step until a stable weight had been achieved (98% step completion). After completion of the sorption cycle, the sample was dried using the same procedure to 0% RH, and finally taken back to the starting point of 40% RH. Two cycles were performed. The weight change during the sorption/desorption cycles were plotted, allowing for the hygroscopic nature of the sample to be determined.

[2] = 7 day stability testing, open vials at 40° C./75% RH, ambient and 80° C.; details: for Purity after 1 week (%) / area % purity and form changes after 1 week: open vials; for T = 0 purity (%): T = 0, before storage; for area % purity and form changes after 1 week: ambient, 40° C./75% RH and 80° C.
[3] = Long term stability testing at 25° C./60% RH
Protocol: Long term stability testing was carried out for Form 1 at 25° C./60% RH. […] The water content was measured by KF analysis.

[4] = Accelerated stability testing at 40° C./75% RH for 6 months
Protocol: Accelerated stability testing was carried out for Form 1 at 40° C./75% RH for 6 months. […] The water content was measured by KF analysis.

Aqueous solubility = assay: Aqueous solubility
Protocol: (§1) Aqueous and acetone solubility was carried out using 3-10 mg of material, depending on availability, and slurrying in 150-200 μL of acetone or 300 μL of deionized water. The samples were agitated at ambient temperature then filtered by centrifugation (0.22 μm nylon filter) after ca. 24 hours and the solids analyzed by XRPD as damp solids. The filtrates were analyzed by HPLC for concentration determination. The water solubility was too low for detection using the current analytical method.

Acetone solubility = assay: Acetone solubility
Protocol: as §1

Competitive slurrying = details: under the conditions assessed
Protocol: Approximately 5 mg of each form (Form 1 and Form 4, Form 1 and Form 8, and Form 4 and Form 8) was weighed and agitated at ambient and 50° C. in minimal acetone, ethanol, diisopropyl ether (DIPE) and acetonitrile. Approximately 8 drops of each solvent was added and the samples were then agitated for ca. 48 hours, before being analyzed by XRPD. Table 9 details the conditions.

[5] = Dynamic vapor sorption (DVS); details: for Post-DVS XRPD analysis (form): after exposure to elevated humidity; for moisture uptake by DVS: at 90% RH
Protocol: Approximately 10-20 mg of sample was placed into a mesh vapor sorption balance pan and loaded into a DVS-1 dynamic vapor sorption balance by Surface Measurement Systems. […] After completion of the sorption cycle, the sample was dried using the same procedure to 0% RH and then a second sorption cycle back to 40% RH. Two cycles were performed. The weight change during the sorption/desorption cycles were plotted, allowing for the hygroscopic nature of the sample to be determined. XRPD analysis may be then carried out on any solid retained.

[6] = Karl Fischer coulometric titration (KF) water content
Protocol: Approximately 10-30 mg of solid material was accurately weighed into a vial. The solid was then manually introduced into the titration cell of a Mettler Toledo C30 Compact Titrator. The vial was back-weighed after the addition of the solid and the weight of the added solid entered on the instrument. Titration was initiated once the sample had fully dissolved in the cell. The water content was calculated automatically by the instrument as a percentage and the data printed.

[7] = Variable temperature X-ray powder diffraction (VT-XRPD)
Protocol: VT-XRPD analysis was carried out on a Philips X'Pert Pro Multipurpose diffractometer. The samples were scanned between 4 and 35.99° 2θ using Cu K radiation (α1 λ=1.54060 Å; α2=1.54443 Å; β=1.39225 Å; α1:α2 ratio=0.5) running in Bragg-Brentano geometry (step size 0.008° 2θ) using 40 kV/40 mA generator settings. Measurements were performed at each step of the temperature profile: 30° C. initial scan, 150° C., 200° C., 210° C., 230° C., and 30° C., final scan.

[8] = Salt disproportionation studies (slurry in deionized water); details: 48 hours
Protocol: Samples of salts described herein were prepared for disproportionation studies. Approximately 15 mg of the salt material was suspended in 4 mL of deionized water at ambient temperature (ca. 22° C.). The slurry of the salt was shaken at ambient temperature and analyzed after: 1 h, 24 h, and 48 h. Each sample was filtered using a centrifuge filter. The solid was analyzed by XRPD. pH measurements were performed for the solution (three pH measurements were carried out for each sample and the average pH was calculated).

[9] = Thermodynamic solubility pH measurements; details: respective buffer, 25° C., 48 hours
Protocol: After 2 hours at 25° C., the pH of each slurry was measured and the pH was adjusted, where required. After 24 hours at 25° C., the pH of each slurry was measured and the pH was adjusted, where required. After 48 hours at 25° C., the slurries were separated by centrifugation. The solids were analyzed by XRPD, while the pH of the separated liquors were also measured.

[10] = acetone, ambient temperature, ca. 24 hours

For `O=C(c1ccc(Oc2ccccc2)cc1Cl)c1c[nH]c2ncnc(N[C@@H]3CC[C@@H](CO)OC3)c12` [Form 1, (2-chloro-4-phenoxyphenyl)(4-(((3R,6S)-6-(hydroxymethyl)tetrahydro-2H-pyran-3-yl)amino)-7H-pyrrolo[2,3-d]pyrimidin-5-yl)methanone], the “hygroscopic nature by GVS” value [1] was “non-hygroscopic”, the “Post-GVS analysis (form)” value ([1]; after exposure to elevated humidity) was “remain Form 1” and the “uptake by GVS” value ([1]; at 90% RH) was less than 0.2%. The “XRPD post GVS” value ([1]; cell wraps: Remained | unchanged) was “Remained”, the “GVS (hygroscopicity)” value ([1]; summary Table 11) was less than 0.2% uptake and the “Purity after 1 week (%)” value ([2]; 40° C./75% RH, 1 week) was 99.4%. The “Purity after 1 week (%)” value ([2]; 80° C., 1 week) was 99.4%, the “Purity after 1 week (%)” value ([2]; Ambient, 1 week) was 99.3% and the “T = 0 purity (%)” value [2] was 99.3%. The “area % purity and form changes after 1 week” value ([2]; 1 week) was “no decrease in area % purity or form changes”, the Stability testing ([2]; cell wraps: No drop in purity or change in form) was “No drop in purity” and the “area % purity and form changes, long term storage” value [3] was “no decrease in area % purity or form changes”. The “Chemical Purity (% AUC)” value ([3]; 0 months) was 98.9 % AUC, the “Crystallinity (XRPD)” value ([3]; 0 months) was “Form 1” and the “Water Content (KF) (%)” value ([3]; 0 months) was 0.16%. For the same molecule, the “Chemical Purity (% AUC)” value ([3]; 1 month) was 98.8 % AUC, the “Water Content (KF) (%)” value ([3]; 1 month) was 0.28% and the “Chemical Purity (% AUC)” value ([3]; 3 months) was 98.8 % AUC. For the same molecule, the “Water Content (KF) (%)” value ([3]; 3 months) was 0.41%, the “Chemical Purity (% AUC)” value ([3]; 6 months) was 98.9 % AUC and the “Crystallinity (XRPD)” value ([3]; 6 months) was “Form 1”. The “Water Content (KF) (%)” value ([3]; 6 months) was 0.47%, the “Chemical Purity (% AUC)” value ([3]; 9 months) was 98.9 % AUC and the “Water Content (KF) (%)” value ([3]; 9 months) was 0.29%. For the same molecule, the “Chemical Purity (% AUC)” value ([3]; 12 months) was 98.8 % AUC, the “Crystallinity (XRPD)” value ([3]; 12 months) was “Form 1” and the “Water Content (KF) (%)” value ([3]; 12 months) was 0.46%. For the same molecule, the “Chemical Purity (% AUC)” value ([3]; 18 months) was 99.0 % AUC, the “Water Content (KF) (%)” value ([3]; 18 months) was 0.49% and the “Chemical Purity (% AUC)” value ([3]; 24 months) was 98.9 % AUC. The “Crystallinity (XRPD)” value ([3]; 24 months) was “Form 1”, the “Water Content (KF) (%)” value ([3]; 24 months) was 0.37% and the “Chemical Purity (% Area)” value ([4]; 0 months) was 98.9 % Area. The “Crystallinity (XRPD)” value ([4]; 0 months) was “Form 1”, the “Water Content (KF) (%)” value ([4]; 0 months) was 0.16% and the “Chemical Purity (% Area)” value ([4]; 1 month) was 98.8 % Area. The “Water Content (KF) (%)” value ([4]; 1 month) was 0.36%, the “Chemical Purity (% Area)” value ([4]; 3 months) was 98.8 % Area and the “Water Content (KF) (%)” value ([4]; 3 months) was 0.53%. The “Chemical Purity (% Area)” value ([4]; 6 months) was 98.9 % Area, the “Crystallinity (XRPD)” value ([4]; 6 months) was “Form 1” and the “Water Content (KF) (%)” value ([4]; 6 months) was 0.57%. The “area % purity and form changes, accelerated storage” value ([4]; 6 months) was “no decrease in area % purity or form changes”, the “Solubility (mg/mL)” value (Aqueous solubility; Water, ambient temperature, ca. 24 hours) was “API not detected” and the Form (Aqueous solubility; XRPD of damp solid after slurrying in Water, AXRPD: Amorphous by XRPD, but limited material for analysis) was “Form 1”. The “XRPD post aqueous solubility” value (Aqueous solubility; amorphous: Form 1 from solubility screen, Form 8: Amorphous, limited material) was “Form 1”, the aqueous solubility (Aqueous solubility; deionized water, ambient temperature, ca. 24 hours) was “not soluble” and the aqueous solubility (Aqueous solubility; summary Table 11, HPLC of filtrate) was “API not detected”. For the same molecule, the Form (Acetone solubility; XRPD of damp solid after slurrying in Acetone, *Small amount of material analyzed) was “Form 2*”, the “Solubility” value (Acetone solubility; [10]) was 12.3 mg/mL (≈ 25.7 mM) and the “solid form after slurrying in acetone (XRPD)” value (Acetone solubility; [10]) was “conversion to Form 2”. The solubility at 24 h (Acetone solubility; acetone, organic solvent or mixture, thermodynamic from solid, summary Table 11, read-out: Acetone solubility) was 12.3 mg/mL (≈ 25.7 mM), the “Acetone solubility: residual solid” value (Acetone solubility; form of residual solid, amorphous input: Form 2 residual solid with additional peaks) was “(Form 2 residual” and the “relative stability of the form” value (Competitive slurrying) was “thermodynamically more stable form”.

For `O=C(c1ccc(Oc2ccccc2)cc1Cl)c1c[nH]c2ncnc(N[C@@H]3CC[C@@H](CO)OC3)c12` [Form 10, (2-chloro-4-phenoxyphenyl)(4-(((3R,6S)-6-(hydroxymethyl)tetrahydro-2H-pyran-3-yl)amino)-7H-pyrrolo[2,3-d]pyrimidin-5-yl)methanone], the “hygroscopic nature by DVS” value [5] was “slightly hygroscopic”, the “Post-DVS XRPD analysis (form)” value [5] was “no change in form, but reduction in crystallinity” and the “moisture uptake by DVS” value [5] was 0.94%. For the same molecule, the “KF moisture (water) content” value [6] was 1.48%, the “KF water content in equivalents” value [6] was 0.4 equivalents and the “VT-XRPD form upon heating to 150° C.” value ([7]; 150° C.) was “persisted upon heating to 150 °C with poor crystallinity”. The “VT-XRPD form at 230° C.” value ([7]; 230° C.) was “became amorphous”, the Identity ([7]; VT-XRPD Run 1, Temp 30° C.) was “Form 10” and the Identity ([7]; VT-XRPD Run 2, Temp 150° C.) was “Form 10”. For the same molecule, the Identity ([7]; VT-XRPD Run 3, Temp 200° C., two forms printed in two cells) was “Form 10; also recorded: Form 12”, the Identity ([7]; VT-XRPD Run 4, Temp 210° C.) was “Form 12” and the Identity ([7]; VT-XRPD Run 5, Temp 230° C.) was “Amorphous”. The Identity ([7]; VT-XRPD Run 6, Temp 30° C.) was “Amorphous”, the “VT-XRPD form between ca. 200° C. and ca. 210° C.” value ([7]; ca. 200° C. to ca. 210° C.) was “converted to Form 12” and the “VT-XRPD form upon cooling to 30° C.” value ([7]; cooling to 30° C.) was “remained amorphous”.

In the case of `O=C(c1ccc(Oc2ccccc2)cc1Cl)c1c[nH]c2ncnc(N[C@@H]3CC[C@@H](CO)OC3)c12.O=S(=O)(O)CCS(=O)(=O)O` [edisylate Form 1], the “Post-DVS XRPD analysis (form)” value [5] was “no change in form from the input material”, the “moisture uptake by DVS” value [5] was “ca. 4.6%” and the “XRPD analysis after storage for 1 week” value ([2]; 40° C./75% RH, 80° C., and ambient temperature, 1 week) was “no change in form from the input material”. For the same molecule, the “Purity after 1 week (%)” value ([2]; 40° C./75% RH, 1 week) was 98.1%, the “Purity after 1 week (%)” value ([2]; 80° C., 1 week) was 97.5% and the “Purity after 1 week (%)” value ([2]; Ambient, 1 week) was 97.9%. The “T = 0 purity (%)” value [2] was 97.9%, the “area % purity and form changes after 1 week” value ([2]; 1 week) was “no decrease in area % purity or form changes” and the “XRPD after salt disproportionation study, 48 hours” value [8] was “no change from the input material”. The “measured pH after slurrying in water” value [8] was 2.32, the “XRPD after thermodynamic solubility studies” value [9] was “no change from the input material” and the “KF moisture (water) content” value [6] was 0.94%.
